{"source": "PubChem BioAssay AID1963972", "about": "(Molecular Pharmacology Branch, DTP, NCI, 2024);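 also: spheroids exposed to compounds for seven days before reading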", "system": "945468-187-T-J2-PDC spheroids viability", "assay": "Anticancer human tumor 945468-187-T-J2-PDC patient-derived rectal carcinoma cell line growth inhibition [PI3K]", "details": "spheroids with HUVEC and MSC; for IC50: curve of first compound; for viability, T/C: stronger effect = lower value", "outline": "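Multi-cell spheroids combine tumor cells with HUVEC and human MSCs, treated with targeted agents alone or with inavolisib, alpelisib, duvelisib or copanlisib. Concentrations fall in half-log steps from at or near clinical Cmax, or from 10 microM where Cmax is unknown; viability read-out.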", "data": [{"smiles": "CNC(=O)c1ccc(N2C(=S)N(c3ccc(C#N)c(C(F)(F)F)c3)C(=O)C2(C)C)cc1F", "note": "+ Cc1nc(NC(=O)N2CCCC2C(N)=O)sc1-c1ccnc(C(C)(C)C(F)(F)F)c1", "values": [{"measurement": "IC50", "setting": "second compound 0.0316 µM", "value": "> 10", "unit": "µM"}, {"measurement": "IC50", "setting": "second compound 0.1 µM", "value": "> 10", "unit": "µM"}, {"measurement": "IC50", "setting": "second compound 0.316 µM", "value": "> 10", "unit": "µM"}, {"measurement": "IC50", "setting": "second compound 1 µM", "value": "> 10", "unit": "µM"}, {"measurement": "IC50", "setting": "second compound 3.16 µM", "value": "> 10", "unit": "µM"}, {"measurement": "IC50", "setting": "second compound 10 µM", "value": "> 10", "unit": "µM"}, {"measurement": "viability, T/C", "setting": "second compound 0.0316 µM, first compound 0.0316 µM", "value": 116, "unit": "%"}, {"measurement": "viability, T/C", "setting": "second compound 0.0316 µM, first compound 0.1 µM", "value": 103, "unit": "%"}, {"measurement": "viability, T/C", "setting": "second compound 0.0316 µM, first compound 0.316 µM", "value": 88.8, "unit": "%"}, {"measurement": "viability, T/C", "setting": "second compound 0.0316 µM, first compound 1 µM", "value": 106, "unit": "%"}, {"measurement": "viability, T/C", "setting": "second compound 0.0316 µM, first compound 3.16 µM", "value": 108, "unit": "%"}, {"measurement": "viability, T/C", "setting": "second compound 0.0316 µM, first compound 10 µM", "value": 102, "unit": "%"}, {"measurement": "viability, T/C", "setting": "second compound 0.1 µM, first compound 0.0316 µM", "value": 95.4, "unit": "%"}, {"measurement": "viability, T/C", "setting": "second compound 0.1 µM, first compound 0.1 µM", "value": 82, "unit": "%"}, {"measurement": "viability, T/C", "setting": "second compound 0.1 µM, first compound 0.316 µM", "value": 91.3, "unit": "%"}, {"measurement": "viability, T/C", "setting": "second compound 0.1 µM, first compound 1 µM", "value": 95.5, "unit": "%"}, {"measurement": "viability, T/C", "setting": "second compound 0.1 µM, first compound 3.16 µM", "value": 102, "unit": "%"}, {"measurement": "viability, T/C", "setting": "second compound 0.1 µM, first compound 10 µM", "value": 85.7, "unit": "%"}, {"measurement": "viability, T/C", "setting": "second compound 0.316 µM, first compound 0.0316 µM", "value": 108, "unit": "%"}, {"measurement": "viability, T/C", "setting": "second compound 0.316 µM, first compound 0.1 µM", "value": 105, "unit": "%"}, {"measurement": "viability, T/C", "setting": "second compound 0.316 µM, first compound 0.316 µM", "value": 91.5, "unit": "%"}, {"measurement": "viability, T/C", "setting": "second compound 0.316 µM, first compound 1 µM", "value": 118, "unit": "%"}, {"measurement": "viability, T/C", "setting": "second compound 0.316 µM, first compound 3.16 µM", "value": 85.5, "unit": "%"}, {"measurement": "viability, T/C", "setting": "second compound 0.316 µM, first compound 10 µM", "value": 92.6, "unit": "%"}, {"measurement": "viability, T/C", "setting": "second compound 1 µM, first compound 0.0316 µM", "value": 93.3, "unit": "%"}, {"measurement": "viability, T/C", "setting": "second compound 1 µM, first compound 0.1 µM", "value": 86.2, "unit": "%"}, {"measurement": "viability, T/C", "setting": "second compound 1 µM, first compound 0.316 µM", "value": 110, "unit": "%"}, {"measurement": "viability, T/C", "setting": "second compound 1 µM, first compound 1 µM", "value": 79.8, "unit": "%"}, {"measurement": "viability, T/C", "setting": "second compound 1 µM, first compound 3.16 µM", "value": 78.4, "unit": "%"}, {"measurement": "viability, T/C", "setting": "second compound 1 µM, first compound 10 µM", "value": 92.9, "unit": "%"}, {"measurement": "viability, T/C", "setting": "second compound 3.16 µM, first compound 0.0316 µM", "value": 81.1, "unit": "%"}, {"measurement": "viability, T/C", "setting": "second compound 3.16 µM, first compound 0.1 µM", "value": 85.8, "unit": "%"}, {"measurement": "viability, T/C", "setting": "second compound 3.16 µM, first compound 0.316 µM", "value": 84.7, "unit": "%"}, {"measurement": "viability, T/C", "setting": "second compound 3.16 µM, first compound 1 µM", "value": 83, "unit": "%"}, {"measurement": "viability, T/C", "setting": "second compound 3.16 µM, first compound 3.16 µM", "value": 89, "unit": "%"}, {"measurement": "viability, T/C", "setting": "second compound 3.16 µM, first compound 10 µM", "value": 83.6, "unit": "%"}, {"measurement": "viability, T/C", "setting": "second compound 10 µM, first compound 0.0316 µM", "value": 83.1, "unit": "%"}, {"measurement": "viability, T/C", "setting": "second compound 10 µM, first compound 0.1 µM", "value": 68.5, "unit": "%"}, {"measurement": "viability, T/C", "setting": "second compound 10 µM, first compound 0.316 µM", "value": 74.1, "unit": "%"}, {"measurement": "viability, T/C", "setting": "second compound 10 µM, first compound 1 µM", "value": 73.5, "unit": "%"}, {"measurement": "viability, T/C", "setting": "second compound 10 µM, first compound 3.16 µM", "value": 72.6, "unit": "%"}, {"measurement": "viability, T/C", "setting": "second compound 10 µM, first compound 10 µM", "value": 63.5, "unit": "%"}]}, {"smiles": "Cn1cnc2c(F)c(Nc3ccc(Br)cc3Cl)c(C(=O)NOCCO)cc21", "note": "+ Cc1nc(NC(=O)N2CCCC2C(N)=O)sc1-c1ccnc(C(C)(C)C(F)(F)F)c1", "values": [{"measurement": "IC50", "setting": "second compound 0.0316 µM", "value": "> 3", "unit": "µM"}, {"measurement": "IC50", "setting": "second compound 0.1 µM", "value": "> 3", "unit": "µM"}, {"measurement": "IC50", "setting": "second compound 0.316 µM", "value": "> 3", "unit": "µM"}, {"measurement": "IC50", "setting": "second compound 1 µM", "value": "> 3", "unit": "µM"}, {"measurement": "IC50", "setting": "second compound 3.16 µM", "value": 2.6, "unit": "µM"}, {"measurement": "IC50", "setting": "second compound 10 µM", "value": 0.895, "unit": "µM"}, {"measurement": "viability, T/C", "setting": "second compound 0.0316 µM, first compound 0.00949 µM", "value": 87.9, "unit": "%"}, {"measurement": "viability, T/C", "setting": "second compound 0.0316 µM, first compound 0.03 µM", "value": 73.6, "unit": "%"}, {"measurement": "viability, T/C", "setting": "second compound 0.0316 µM, first compound 0.0949 µM", "value": 79.8, "unit": "%"}, {"measurement": "viability, T/C", "setting": "second compound 0.0316 µM, first compound 0.3 µM", "value": 71.8, "unit": "%"}, {"measurement": "viability, T/C", "setting": "second compound 0.0316 µM, first compound 0.949 µM", "value": 66.7, "unit": "%"}, {"measurement": "viability, T/C", "setting": "second compound 0.0316 µM, first compound 3 µM", "value": 62, "unit": "%"}, {"measurement": "viability, T/C", "setting": "second compound 0.1 µM, first compound 0.00949 µM", "value": 110, "unit": "%"}, {"measurement": "viability, T/C", "setting": "second compound 0.1 µM, first compound 0.03 µM", "value": 84.5, "unit": "%"}, {"measurement": "viability, T/C", "setting": "second compound 0.1 µM, first compound 0.0949 µM", "value": 88.9, "unit": "%"}, {"measurement": "viability, T/C", "setting": "second compound 0.1 µM, first compound 0.3 µM", "value": 77.4, "unit": "%"}, {"measurement": "viability, T/C", "setting": "second compound 0.1 µM, first compound 0.949 µM", "value": 70.9, "unit": "%"}, {"measurement": "viability, T/C", "setting": "second compound 0.1 µM, first compound 3 µM", "value": 63.1, "unit": "%"}, {"measurement": "viability, T/C", "setting": "second compound 0.316 µM, first compound 0.00949 µM", "value": 99, "unit": "%"}, {"measurement": "viability, T/C", "setting": "second compound 0.316 µM, first compound 0.03 µM", "value": 74.1, "unit": "%"}, {"measurement": "viability, T/C", "setting": "second compound 0.316 µM, first compound 0.0949 µM", "value": 82.4, "unit": "%"}, {"measurement": "viability, T/C", "setting": "second compound 0.316 µM, first compound 0.3 µM", "value": 75.1, "unit": "%"}, {"measurement": "viability, T/C", "setting": "second compound 0.316 µM, first compound 0.949 µM", "value": 68.7, "unit": "%"}, {"measurement": "viability, T/C", "setting": "second compound 0.316 µM, first compound 3 µM", "value": 69.4, "unit": "%"}, {"measurement": "viability, T/C", "setting": "second compound 1 µM, first compound 0.00949 µM", "value": 71.7, "unit": "%"}, {"measurement": "viability, T/C", "setting": "second compound 1 µM, first compound 0.03 µM", "value": 114, "unit": "%"}, {"measurement": "viability, T/C", "setting": "second compound 1 µM, first compound 0.0949 µM", "value": 80.6, "unit": "%"}, {"measurement": "viability, T/C", "setting": "second compound 1 µM, first compound 0.3 µM", "value": 76.6, "unit": "%"}, {"measurement": "viability, T/C", "setting": "second compound 1 µM, first compound 0.949 µM", "value": 66.5, "unit": "%"}, {"measurement": "viability, T/C", "setting": "second compound 1 µM, first compound 3 µM", "value": 55.6, "unit": "%"}, {"measurement": "viability, T/C", "setting": "second compound 3.16 µM, first compound 0.00949 µM", "value": 68.6, "unit": "%"}, {"measurement": "viability, T/C", "setting": "second compound 3.16 µM, first compound 0.03 µM", "value": 78, "unit": "%"}, {"measurement": "viability, T/C", "setting": "second compound 3.16 µM, first compound 0.0949 µM", "value": 97.3, "unit": "%"}, {"measurement": "viability, T/C", "setting": "second compound 3.16 µM, first compound 0.3 µM", "value": 67.8, "unit": "%"}, {"measurement": "viability, T/C", "setting": "second compound 3.16 µM, first compound 0.949 µM", "value": 70.8, "unit": "%"}, {"measurement": "viability, T/C", "setting": "second compound 3.16 µM, first compound 3 µM", "value": 47.1, "unit": "%"}, {"measurement": "viability, T/C", "setting": "second compound 10 µM, first compound 0.00949 µM", "value": 77.3, "unit": "%"}, {"measurement": "viability, T/C", "setting": "second compound 10 µM, first compound 0.03 µM", "value": 68.2, "unit": "%"}, {"measurement": "viability, T/C", "setting": "second compound 10 µM, first compound 0.0949 µM", "value": 68.8, "unit": "%"}, {"measurement": "viability, T/C", "setting": "second compound 10 µM, first compound 0.3 µM", "value": 61.2, "unit": "%"}, {"measurement": "viability, T/C", "setting": "second compound 10 µM, first compound 0.949 µM", "value": 51.8, "unit": "%"}, {"measurement": "viability, T/C", "setting": "second compound 10 µM, first compound 3 µM", "value": 10.5, "unit": "%"}]}]}
